What was measured:
Assay in all cases: relative viability (nuclei count vs DMSO), 5 days (fraction); higher = more cells survive
NCI-H1792 = tested on: NCI-H1792
In short: (§1)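 A single step with final 0.05% Triton X-100, 1% formaldehyde and 1 ug/ml Hoechst fixed the cells and stained nuclei 5 days after treatment. Lung cancer cell lines in 1536-well plates had been treated by pin tool the day after seeding with one drug alone or a fixed anchor-drug dose plus five library-drug doses (not always all listed) in √10 steps, and nuclei were counted on 4× images. Relative viability is the ratio of nuclei in treated wells to nuclei in vehicle wells, taken as the median of duplicate plates.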

NCI-H1437 = tested on: NCI-H1437
In short: as §1

NCI-H2342 = tested on: NCI-H2342
In short: as §1

A-427 = tested on: A-427
In short: as §1

NCI-H650 = tested on: NCI-H650
In short: as §1

NCI-H1975 = tested on: NCI-H1975
In short: as §1

HCC-15 = tested on: HCC-15
In short: as §1

NCI-H838 = tested on: NCI-H838
In short: as §1

NCI-H23 = tested on: NCI-H23
In short: as §1

SW 900 = tested on: SW 900
In short: as §1

EKVX = tested on: EKVX
In short: as §1

COR-L23 = tested on: COR-L23
In short: as §1

201T = tested on: 201T
In short: as §1

NCI-H1666 = tested on: NCI-H1666
In short: as §1

HCC-827 = tested on: HCC-827
In short: as §1

HCC-44 = tested on: HCC-44
In short: as §1

SK-MES-1 = tested on: SK-MES-1
In short: as §1

NCI-H358 = tested on: NCI-H358
In short: as §1

NCI-H441 = tested on: NCI-H441
In short: as §1

BEN = tested on: BEN
In short: as §1

HARA = tested on: HARA
In short: as §1

NCI-H596 = tested on: NCI-H596
In short: as §1

NCI-H1650 = tested on: NCI-H1650
In short: as §1

Molecule CCN(CC)CCCCNc1ncc2cc(-c3cc(OC)cc(OC)c3)c(NC(=O)NC(C)(C)C)nc2n1 + Nc1nc2[nH]cc(CCc3ccc(C(=O)N[C@@H](CCC(=O)O)C(=O)O)cc3)c2c(=O)[nH]1 [Pemetrexed] (partner 0.2 µM) has a relative viability (NCI-H1792; first compound 0.01 µM) of 1.17, a relative viability (NCI-H1792; first compound 0.03162 µM) of 0.932 and a relative viability (NCI-H1792; first compound 0.1 µM) of 0.634. It also gave a relative viability (NCI-H1792; first compound 0.3162 µM) of 0.945, a relative viability (NCI-H1792; first compound 1 µM) of 0.296 and a relative viability (NCI-H1437; first compound 0.01 µM) of 0.332. It also gave a relative viability (NCI-H1437; first compound 0.03162 µM) of 0.309, a relative viability (NCI-H1437; first compound 0.1 µM) of 0.324 and a relative viability (NCI-H1437; first compound 0.3162 µM) of 0.328. For the same molecule, the relative viability (NCI-H1437; first compound 1 µM) was 0.381, the relative viability (NCI-H2342; first compound 0.01 µM) was 0.762 and the relative viability (NCI-H2342; first compound 0.03162 µM) was 0.777. The relative viability (NCI-H2342; first compound 0.1 µM) was 0.803, the relative viability (NCI-H2342; first compound 0.3162 µM) was 0.818 and the relative viability (NCI-H2342; first compound 1 µM) was 0.755. For the same molecule, the relative viability (A-427; first compound 0.01 µM) was 1.01, the relative viability (A-427; first compound 0.03162 µM) was 1 and the relative viability (A-427; first compound 0.1 µM) was 1.06. The relative viability (A-427; first compound 0.3162 µM) was 1.23, the relative viability (A-427; first compound 1 µM) was 0.965 and the relative viability (NCI-H650; first compound 0.01 µM) was 0.877. It also gave a relative viability (NCI-H650; first compound 0.03162 µM) of 0.842, a relative viability (NCI-H650; first compound 0.1 µM) of 1.04 and a relative viability (NCI-H650; first compound 0.3162 µM) of 1.03. For the same molecule, the relative viability (NCI-H650; first compound 1 µM) was 0.948, the relative viability (NCI-H1975; first compound 0.01 µM) was 0.286 and the relative viability (NCI-H1975; first compound 0.03162 µM) was 0.306. The relative viability (NCI-H1975; first compound 0.1 µM) was 0.318, the relative viability (NCI-H1975; first compound 0.3162 µM) was 0.331 and the relative viability (NCI-H1975; first compound 1 µM) was 0.283. The relative viability (HCC-15; first compound 0.01 µM) was 0.21, the relative viability (HCC-15; first compound 0.03162 µM) was 0.237 and the relative viability (HCC-15; first compound 0.1 µM) was 0.206. For the same molecule, the relative viability (HCC-15; first compound 0.3162 µM) was 0.209, the relative viability (HCC-15; first compound 1 µM) was 0.207 and the relative viability (NCI-H838; first compound 0.01 µM) was 0.242. For the same molecule, the relative viability (NCI-H838; first compound 0.03162 µM) was 0.245, the relative viability (NCI-H838; first compound 0.1 µM) was 0.225 and the relative viability (NCI-H838; first compound 0.3162 µM) was 0.234. It also gave a relative viability (NCI-H838; first compound 1 µM) of 0.224, a relative viability (NCI-H23; first compound 0.01 µM) of 0.666 and a relative viability (NCI-H23; first compound 0.03162 µM) of 0.566. The relative viability (NCI-H23; first compound 0.1 µM) was 0.854, the relative viability (NCI-H23; first compound 0.3162 µM) was 0.778 and the relative viability (NCI-H23; first compound 1 µM) was 0.646. For the same molecule, the relative viability (SW 900; first compound 0.01 µM) was 0.529, the relative viability (SW 900; first compound 0.03162 µM) was 0.461 and the relative viability (SW 900; first compound 0.1 µM) was 0.517. For the same molecule, the relative viability (SW 900; first compound 0.3162 µM) was 0.509, the relative viability (SW 900; first compound 1 µM) was 0.309 and the relative viability (EKVX; first compound 0.03162 µM) was 0.354. The relative viability (EKVX; first compound 0.1 µM) was 0.362, the relative viability (EKVX; first compound 0.3162 µM) was 0.475 and the relative viability (EKVX; first compound 1 µM) was 0.379. The relative viability (COR-L23; first compound 0.01 µM) was 0.208, the relative viability (COR-L23; first compound 0.03162 µM) was 0.188 and the relative viability (COR-L23; first compound 0.1 µM) was 0.192. It also gave a relative viability (COR-L23; first compound 0.3162 µM) of 0.196, a relative viability (COR-L23; first compound 1 µM) of 0.192 and a relative viability (201T; first compound 0.01 µM) of 0.351. For the same molecule, the relative viability (201T; first compound 0.03162 µM) was 0.315, the relative viability (201T; first compound 0.1 µM) was 0.331 and the relative viability (201T; first compound 0.3162 µM) was 0.349. For the same molecule, the relative viability (201T; first compound 1 µM) was 0.313, the relative viability (NCI-H1666; first compound 0.01 µM) was 0.814 and the relative viability (NCI-H1666; first compound 0.03162 µM) was 0.796. For the same molecule, the relative viability (NCI-H1666; first compound 0.1 µM) was 0.783, the relative viability (NCI-H1666; first compound 0.3162 µM) was 0.942 and the relative viability (NCI-H1666; first compound 1 µM) was 0.808. It also gave a relative viability (HCC-827; first compound 0.01 µM) of 0.266, a relative viability (HCC-827; first compound 0.03162 µM) of 0.261 and a relative viability (HCC-827; first compound 0.1 µM) of 0.265. The relative viability (HCC-827; first compound 0.3162 µM) was 0.269, the relative viability (HCC-827; first compound 1 µM) was 0.244 and the relative viability (HCC-44; first compound 0.01 µM) was 0.682. The relative viability (HCC-44; first compound 0.03162 µM) was 0.705, the relative viability (HCC-44; first compound 0.1 µM) was 0.634 and the relative viability (HCC-44; first compound 0.3162 µM) was 0.625. For the same molecule, the relative viability (HCC-44; first compound 1 µM) was 0.721, the relative viability (SK-MES-1; first compound 0.01 µM) was 1.11 and the relative viability (SK-MES-1; first compound 0.03162 µM) was 0.94. It also gave a relative viability (SK-MES-1; first compound 0.1 µM) of 1.05, a relative viability (SK-MES-1; first compound 0.3162 µM) of 1.07 and a relative viability (SK-MES-1; first compound 1 µM) of 0.98. For the same molecule, the relative viability (NCI-H358; first compound 0.01 µM) was 0.163, the relative viability (NCI-H358; first compound 0.03162 µM) was 0.169 and the relative viability (NCI-H358; first compound 0.1 µM) was 0.16. For the same molecule, the relative viability (NCI-H358; first compound 0.3162 µM) was 0.216, the relative viability (NCI-H358; first compound 1 µM) was 0.167 and the relative viability (NCI-H441; first compound 0.01 µM) was 0.257. It also gave a relative viability (NCI-H441; first compound 0.03162 µM) of 0.232, a relative viability (NCI-H441; first compound 0.1 µM) of 0.26 and a relative viability (NCI-H441; first compound 0.3162 µM) of 0.249. It also gave a relative viability (NCI-H441; first compound 1 µM) of 0.25, a relative viability (BEN; first compound 0.01 µM) of 0.664 and a relative viability (BEN; first compound 0.03162 µM) of 0.681. The relative viability (BEN; first compound 0.1 µM) was 0.826, the relative viability (BEN; first compound 0.3162 µM) was 0.77 and the relative viability (BEN; first compound 1 µM) was 0.69. The relative viability (HARA; first compound 0.01 µM) was 0.202, the relative viability (HARA; first compound 0.03162 µM) was 0.234 and the relative viability (HARA; first compound 0.1 µM) was 0.279. For the same molecule, the relative viability (HARA; first compound 0.3162 µM) was 0.22, the relative viability (HARA; first compound 1 µM) was 0.281 and the relative viability (NCI-H596; first compound 0.01 µM) was 0.453. It also gave a relative viability (NCI-H596; first compound 0.03162 µM) of 0.496, a relative viability (NCI-H596; first compound 0.1 µM) of 0.488 and a relative viability (NCI-H596; first compound 0.3162 µM) of 0.584. The relative viability (NCI-H596; first compound 1 µM) was 0.443, the relative viability (NCI-H1650; first compound 0.01 µM) was 0.398 and the relative viability (NCI-H1650; first compound 0.03162 µM) was 0.377. It also gave a relative viability (NCI-H1650; first compound 0.1 µM) of 0.352, a relative viability (NCI-H1650; first compound 0.3162 µM) of 0.326 and a relative viability (NCI-H1650; first compound 1 µM) of 0.344.
